Laboratory results from patent US11004539B2, “Predicting metabolic side effects of transported drugs” (The Regents of the University of California, priority 2016, dated 2021).
pIC50, pKi: −log10 of the molar value. Counter-ions that a name gives are not always drawn. Like-named read-outs stand apart in the source and are kept apart here.

Tests used:
[1] = target: T1, OAT3 (Mus musculus, UniProt O88909); assay: Plasma metabolomics profiling of Oat3KO versus wild-type mice; details: Oat3KO vs wild type mice
T1 sequence (O88909 1-537): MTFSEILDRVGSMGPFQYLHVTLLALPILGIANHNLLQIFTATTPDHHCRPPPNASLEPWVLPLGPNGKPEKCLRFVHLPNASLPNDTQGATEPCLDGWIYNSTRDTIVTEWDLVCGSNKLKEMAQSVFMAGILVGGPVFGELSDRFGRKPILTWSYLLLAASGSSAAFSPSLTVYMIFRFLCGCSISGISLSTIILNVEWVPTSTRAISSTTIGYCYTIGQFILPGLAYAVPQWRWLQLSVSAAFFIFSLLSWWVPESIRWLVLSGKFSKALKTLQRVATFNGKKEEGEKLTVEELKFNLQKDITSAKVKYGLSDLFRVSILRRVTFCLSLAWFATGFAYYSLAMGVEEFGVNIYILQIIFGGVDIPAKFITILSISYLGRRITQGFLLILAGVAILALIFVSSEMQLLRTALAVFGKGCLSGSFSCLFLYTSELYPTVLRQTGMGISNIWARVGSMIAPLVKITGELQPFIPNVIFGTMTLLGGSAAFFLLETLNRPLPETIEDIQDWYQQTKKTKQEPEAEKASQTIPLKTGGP

[2] = target: T2, OAT1 (Mus musculus, UniProt Q8VC69); assay: Uptake inhibition assay in Oat1-transfected CHO cells (6-carboxyfluorescein tracer); assay type: cell-based; set-up: expressed in transfected cells; host or cells: CHO cells; details: for pKi: read-out: calculated Ki; for interaction with OAT1 in in vitro assays: set of 8 predicted metabolites tested
T2 sequence (Q8VC69 1-545): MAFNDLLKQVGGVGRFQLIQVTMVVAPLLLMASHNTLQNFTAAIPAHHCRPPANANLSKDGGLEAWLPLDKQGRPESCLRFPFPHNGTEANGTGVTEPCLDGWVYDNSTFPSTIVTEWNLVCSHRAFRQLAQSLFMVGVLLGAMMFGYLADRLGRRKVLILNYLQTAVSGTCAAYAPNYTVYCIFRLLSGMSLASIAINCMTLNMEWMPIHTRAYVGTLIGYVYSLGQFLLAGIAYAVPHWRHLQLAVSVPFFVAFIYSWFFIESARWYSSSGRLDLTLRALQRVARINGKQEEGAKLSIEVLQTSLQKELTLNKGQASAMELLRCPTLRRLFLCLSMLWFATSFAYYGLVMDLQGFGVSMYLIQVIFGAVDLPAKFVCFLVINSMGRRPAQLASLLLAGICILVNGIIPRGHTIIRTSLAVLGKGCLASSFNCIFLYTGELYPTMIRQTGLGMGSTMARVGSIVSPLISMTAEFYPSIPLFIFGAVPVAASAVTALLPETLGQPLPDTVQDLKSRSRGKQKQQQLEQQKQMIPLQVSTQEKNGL
Procedure: (A) The IC50 curves for the metabolites characterized in the in vitro uptake inhibition assay using CHO stably expressing Oat1. […] (B) The table summarizes the calculated Ki and metabolic pathways the characterized metabolites were involved in.
Oat1-transfected CHO cells cultured on 96-well plates were incubated in the presence of 10 μM 6-carboxyfluorescein with or without individual metabolites (with controls treated with the OAT1 inhibitor probenecid). The IC50 curves for novel ligands were plotted in Prism Software (GraphPad Inc., San Diego, Calif.), and the IC50 values were converted to Ki (inhibition affinity) using the Cheng-Prusoff equation.

[3] = target: T1, OAT3; details: OAT3-expressing cells; 5-carboxyfluorescein as fluorescent tracer
[4] = target: T2, OAT1; assay: Uptake inhibition assay, CHO cells constitutively expressing mouse Oat1; details: 6-carboxyfluorescein as fluorescent tracer
[5] = target: T2, OAT1; assay: cell-based
[6] = target: T1, OAT3; assay: cell-based
[7] = target: T1, OAT3; details: in vivo
[8] = target: T2, OAT1; details: OAT1 vs OAT3; cited from earlier work
[9] = target: T2, OAT1
[10] = statistical significance not achieved

With `O=C(O)c1c[nH]c2ccccc12` [indole-3-carboxylic acid] the “change in plasma of the Oat3KO” value [1] was “accumulate in the plasma”.
With `CCCCC[C@H](O)/C=C/[C@H]1[C@H](O)CC(=O)[C@@H]1CCCCCCC(=O)O` [prostaglandin E1] the pKi [2] was 4.92 and the “interaction with OAT1 in in vitro assays” value [2] was “directly interacting with OAT1”.
In the case of `C[C@H](CCC(=O)O)[C@H]1CC[C@H]2[C@@H]3[C@H](O)C[C@@H]4C[C@H](O)CC[C@]4(C)[C@H]3CC[C@]12C` [chenodeoxycholate], the “change in plasma of the Oat3KO” value [1, 10] was “increased”.
For `CCCC(O)CC(=O)O` (stereo not drawn) [3-hydroxyhexanoate], the “change in plasma of the Oat3KO” value [1] was “altered”.
With `CCCCN(CCCC)CCC(O)c1cc2c(Cl)cc(Cl)cc2c2cc(C(F)(F)F)ccc12` (stereo not drawn) [Halofantrine] the “IC50 OAT3” value [3] was “No inhibition” and the “IC50 OAT1” value [4] was “No inhibition”.
For equol sulfate, the “increase in plasma of the Oat3KO” value ([1]; significantly altered) was “more than 7 fold”.
With `C[C@H](CCC(=O)NCC(=O)O)[C@H]1CC[C@H]2[C@@H]3[C@H](O)C[C@@H]4C[C@H](O)CC[C@]4(C)[C@H]3C[C@H](O)[C@]12C` [glycocholate] the “change in plasma of the Oat3KO” value [1, 10] was “increased”.
`NC(=O)C(c1ccccc1)(c1ccccc1)[C@@H]1CCN(CCc2ccc3c(c2)CCO3)C1` [Darifenacin] gave a pIC50 [5] of 3.09 and a pIC50 [6] of 3.70.
For `NCCc1c[nH]c2ccc(O)cc12` [serotonin], the “change in plasma of the Oat3KO” value [1] was “accumulate in the plasma”.
Work on `Cc1nc2n(c(=O)c1CCN1CCC(c3noc4cc(F)ccc34)CC1)CCCC2O` (stereo not drawn) [Paliperidone] yielded a pIC50 [5] of 2.97 and a pIC50 [6] of 3.59.
In the case of `O=C(O)C(O)Cc1c[nH]c2ccccc12` (stereo not drawn) [indolelactate], the “change in plasma of the Oat3KO” value [7] was “accumulate in the plasma”.
With `Cc1ccc(OS(=O)(=O)O)cc1` [p-cresol sulfate] the “change in plasma of the Oat3KO” value [1] was “significantly increased”.
For `CCCCCCCCC(O)C(=O)O` (stereo not drawn) [2-hydroxydecanoate], the “change in plasma of the Oat3KO” value [1] was “altered”.
With `CCCCCC/C=C\CCCCCCCC(=O)O` [palmitoleic acid] the pKi [2] was 3.70 and the “interaction with OAT1 in in vitro assays” value [2] was “directly interacting with OAT1”.
With `Cc1ccc(O[C@@H]2O[C@H](C(=O)O)[C@@H](O)[C@H](O)[C@H]2O)cc1` [p-cresol-glucuronide] the “change in plasma of the Oat3KO” value [1] was “significantly increased”.
In the case of `C[C@H](CCC(=O)O)[C@H]1CC[C@H]2[C@@H]3[C@H](O)C[C@@H]4C[C@H](O)CC[C@]4(C)[C@H]3C[C@H](O)[C@]12C` [cholate], the “increase in plasma of the Oat3KO” value ([1]; significantly altered) was roughly 160 fold.
With equol glucuronide the “increase in plasma of the Oat3KO” value ([1]; significantly altered) was “more than 42 fold”.
For `CN/C(=N/CCSCc1nc[nH]c1C)NC#N` [cimetidine], the “affinity for OAT1 compared to OAT3, fold less” value [8] is given as “roughly 10 fold”.
In the case of `C[C@H](CCC(=O)NCCS(=O)(=O)[O-])[C@H]1CC[C@H]2[C@@H]3C[C@H](O)[C@@H]4C[C@H](O)CC[C@]4(C)[C@H]3CC[C@]12C.[Na+]` [taurohyodeoxycholic acid], the “change in plasma of the Oat3KO” value [1, 10] was “increased over ten-fold”.
In the case of `O=C(O)CCCCCCCCC(=O)O` [sebacate], the “change in plasma of the Oat3KO” value [1] was “altered”.
For `C[C@H](CCC(=O)O)[C@H]1CC[C@H]2[C@@H]3[C@@H](O)[C@@H](O)[C@@H]4C[C@H](O)CC[C@]4(C)[C@H]3CC[C@]12C` [beta-muricholate], the “increase in plasma of the Oat3KO” value ([1]; significantly altered) was “over 24 fold”.
With `O=C(O)CCCCCCCCCCCCCCCO` [16-hydroxy-hexadecanoic acid] the pKi [2] was 4.89 and the “interaction with OAT1 in in vitro assays” value [2] was “directly interacting with OAT1”.
In the case of `O=S(=O)(O)Oc1c[nH]c2ccccc12` [3-indoxyl sulfate], the “change in plasma of the Oat3KO” value [1] was “accumulate in the plasma”.
With `CCCN(CCC)S(=O)(=O)c1ccc(C(=O)O)cc1` [Probenecid] the pIC50 [6] was 4.48.
With `Nc1nc2c(c(=O)[nH]1)N=C(CNc1ccc(C(=O)N[C@@H](CCC(=O)O)C(=O)O)cc1)CN2` [dihydrofolic acid] the pKi [2] was 4.03 and the “interaction with OAT1 in in vitro assays” value [2] was “directly interacting with OAT1”.
In the case of `CC(=O)N[C@@H](CC(=O)c1ccccc1N)C(=O)O` [N-acetylkynurenine], the “change in plasma of the Oat3KO” value [1] was “accumulate in the plasma”.
For `COc1cc(N)c(Cl)cc1C(=O)NC1CCN(CCCOc2ccc(F)cc2)CC1OC` (stereo not drawn) [Cisapride], the “IC50 OAT3” value [3] was “No ihhibition” and the “IC50 OAT1” value [9] was “No inhibition”.
In the case of `C[C@H](CCC(=O)NCCS(=O)(=O)O)[C@H]1CC[C@H]2[C@@H]3[C@@H](O)C[C@@H]4C[C@H](O)CC[C@]4(C)[C@H]3CC[C@]12C` [tauroursodeoxycholate], the “change in plasma of the Oat3KO” value [1, 10] was “increased over ten-fold”.
In the case of `C[C@H](CCC(=O)O)[C@H]1CC[C@H]2[C@@H]3C(=O)C[C@@H]4C[C@H](O)CC[C@]4(C)[C@H]3C[C@H](O)[C@]12C` [7-ketodeoxycholate], the “change in plasma of the Oat3KO” value [1] was “significantly increased”.
In the case of `C[C@H](CCC(=O)O)[C@H]1CC[C@H]2[C@@H]3[C@@H](O)C[C@@H]4C[C@H](O)CC[C@]4(C)[C@H]3CC[C@]12C` [ursodeoxycholate], the “change in plasma of the Oat3KO” value [1] was “significantly increased”.
With `CC(=O)N[C@@H](Cc1c[nH]c2ccccc12)C(=O)O` [N-acetyltryptophan] the “change in plasma of the Oat3KO” value [1] was “accumulate in the plasma”.
For `O=C(O)CCCCCCCCCCCCC(=O)O` [tetradecanedioate], the “change in plasma of the Oat3KO” value [1] was “altered”.
With `CN(C)C(=O)C(CCN1CCC(O)(c2ccc(Cl)cc2)CC1)(c1ccccc1)c1ccccc1` [Loperamide] the “IC50 OAT1” value [4] was “No significant” and the pIC50 [6] was 4.02.
With `C[C@H](CCC(=O)NCCS(=O)(=O)O)[C@H]1CC[C@H]2[C@@H]3[C@H](O)C[C@@H]4C[C@H](O)CC[C@]4(C)[C@H]3CC[C@]12C` [taurochenodeoxycholate] the “increase in plasma of the Oat3KO” value ([1]; did not reach statistical significance) was roughly 30 fold.
In the case of `C[C@H](CCC(=O)NCCS(=O)(=O)O)[C@H]1CC[C@H]2[C@@H]3[C@@H](O)[C@@H](O)[C@@H]4C[C@H](O)CC[C@]4(C)[C@H]3CC[C@]12C` [tauro-beta-muricholate], the “change in plasma of the Oat3KO” value [1, 10] was “increased”.
For `O=S(=O)(O)Oc1ccccc1` [phenol sulfate], the “change in plasma of the Oat3KO” value [1] was “significantly increased”.
With `OC(CNCC(O)C1CCc2cc(F)ccc2O1)C1CCc2cc(F)ccc2O1` (stereo not drawn) [Nebivolol] the “IC50 OAT1” value [9] was “No significant” and the pIC50 [6] was 3.77.
For `C[C@H](CCC(=O)NCCS(=O)(=O)O)[C@H]1CC[C@H]2[C@@H]3CC[C@@H]4C[C@H](O)CC[C@]4(C)[C@H]3C[C@H](O)[C@]12C` [taurodeoxycholate], the “change in plasma of the Oat3KO” value [1, 10] was “increased over ten-fold”.
